Assays:
hERG potassium channel = hERG potassium channel (Homo sapiens, UniProt Q12809); test: Eurofins panel 265900; assay type: binding
Sigma σ1 = Sigma σ1 (Homo sapiens, UniProt Q99720); test: Eurofins panel 278110; assay type: binding
Imidazoline I2, Central = test: Eurofins panel 241000; assay type: binding, rat; conditions: 10 µM
keratinocytes = test: RNASeq transcriptome analysis, keratinocytes; assay type: cell-based, human; conditions: 24 hrs of treatment
[1] = test system: Glutamate, NMDA, Phencyclidine; test: Eurofins panel 233000; assay type: binding, rat; conditions: 10 µM
primary scar fibroblasts = test: Scar-in-a-jar collagen I immunofluorescence (deposition, coherency); assay type: cell-based, human
Protocol: Fibrillar collagen I deposition was measured using confocal image analysis (Fig. 4f–k). […] Furthermore, coherency analysis[18] was used to determine collagen alignment. This analysis specifically analyses the alignment of collagen fibers, with more alignment increasing the score and more random distribution provided a lower score. In scar tissue scores are higher as fibers are densely parallel aligned in contrast to normal skin[18].
An experimental ‘Scar-in-a-jar’ protocol developed by Chen and Raghunath[36] was followed for quantitation of collagen per cell and to measure the orientation of collagen under fibrotic conditions in vitro. […] The images then further analyzed for collagen coherency measurements using ‘Fiji is just image j’s’ (FIJI) orientation J application as previously reported[18],[37]. For quantitation of collagen per cell, an image of whole chamber slide was captured using fluorescence microscope (Nikon inverted microscope). The 488 nm green and Hoechst stained blue images were collected, and analyzed using NIS-Elements software (Nikon, Japan). The six ROIs were selected from each image and the binary thresholds were recorded for each corresponding image. […]

Endothelin ETB = Endothelin ETB (Homo sapiens, UniProt P24530); test: Eurofins panel 224110; assay type: binding
Chain of Endothelin ETB (P24530 27-442): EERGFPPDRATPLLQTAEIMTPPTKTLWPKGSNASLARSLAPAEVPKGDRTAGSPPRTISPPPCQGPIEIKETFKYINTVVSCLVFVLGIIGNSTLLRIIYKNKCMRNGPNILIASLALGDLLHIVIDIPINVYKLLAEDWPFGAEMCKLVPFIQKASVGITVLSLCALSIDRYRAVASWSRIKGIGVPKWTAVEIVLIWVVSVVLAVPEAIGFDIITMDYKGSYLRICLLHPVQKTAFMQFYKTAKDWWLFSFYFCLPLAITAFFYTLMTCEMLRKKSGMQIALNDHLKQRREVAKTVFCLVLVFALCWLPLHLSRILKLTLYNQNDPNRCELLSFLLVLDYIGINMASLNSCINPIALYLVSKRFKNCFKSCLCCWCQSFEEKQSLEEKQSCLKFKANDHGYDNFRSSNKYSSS

[2] = test system: primary dermal fibroblasts; test: Procollagen I FRET measurement, scar-in-a-jar; assay type: cell-based, human; conditions: highest dose (10 µM)
[3] = molecular target: Serotonin (5-Hydroxytryptamine) 5-HT2A (Homo sapiens, UniProt P28223); test: Eurofins panel 271650; assay type: binding
Chain of Serotonin (5-Hydroxytryptamine) 5-HT2A (P28223 whole entry): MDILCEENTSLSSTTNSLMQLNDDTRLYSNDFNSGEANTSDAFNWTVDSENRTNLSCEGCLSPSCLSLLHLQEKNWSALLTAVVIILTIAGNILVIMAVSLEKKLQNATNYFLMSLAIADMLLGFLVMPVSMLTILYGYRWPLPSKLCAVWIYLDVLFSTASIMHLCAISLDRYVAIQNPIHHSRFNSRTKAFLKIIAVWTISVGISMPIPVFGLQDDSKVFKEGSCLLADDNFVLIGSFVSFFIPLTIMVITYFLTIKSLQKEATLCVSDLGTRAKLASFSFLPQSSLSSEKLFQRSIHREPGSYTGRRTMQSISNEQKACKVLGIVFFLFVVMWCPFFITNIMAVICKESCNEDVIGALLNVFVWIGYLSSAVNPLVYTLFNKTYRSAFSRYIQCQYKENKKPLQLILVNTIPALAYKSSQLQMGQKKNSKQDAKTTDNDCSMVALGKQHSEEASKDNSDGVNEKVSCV

Chain of Sigma σ1 (Q99720 whole entry): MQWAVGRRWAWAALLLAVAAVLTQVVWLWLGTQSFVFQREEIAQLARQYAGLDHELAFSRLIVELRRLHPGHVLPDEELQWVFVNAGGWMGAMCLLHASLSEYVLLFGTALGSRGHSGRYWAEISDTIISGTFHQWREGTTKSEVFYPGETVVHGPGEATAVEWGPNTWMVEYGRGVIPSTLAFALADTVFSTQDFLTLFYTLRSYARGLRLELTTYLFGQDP
Chain of hERG potassium channel (Q12809 whole entry): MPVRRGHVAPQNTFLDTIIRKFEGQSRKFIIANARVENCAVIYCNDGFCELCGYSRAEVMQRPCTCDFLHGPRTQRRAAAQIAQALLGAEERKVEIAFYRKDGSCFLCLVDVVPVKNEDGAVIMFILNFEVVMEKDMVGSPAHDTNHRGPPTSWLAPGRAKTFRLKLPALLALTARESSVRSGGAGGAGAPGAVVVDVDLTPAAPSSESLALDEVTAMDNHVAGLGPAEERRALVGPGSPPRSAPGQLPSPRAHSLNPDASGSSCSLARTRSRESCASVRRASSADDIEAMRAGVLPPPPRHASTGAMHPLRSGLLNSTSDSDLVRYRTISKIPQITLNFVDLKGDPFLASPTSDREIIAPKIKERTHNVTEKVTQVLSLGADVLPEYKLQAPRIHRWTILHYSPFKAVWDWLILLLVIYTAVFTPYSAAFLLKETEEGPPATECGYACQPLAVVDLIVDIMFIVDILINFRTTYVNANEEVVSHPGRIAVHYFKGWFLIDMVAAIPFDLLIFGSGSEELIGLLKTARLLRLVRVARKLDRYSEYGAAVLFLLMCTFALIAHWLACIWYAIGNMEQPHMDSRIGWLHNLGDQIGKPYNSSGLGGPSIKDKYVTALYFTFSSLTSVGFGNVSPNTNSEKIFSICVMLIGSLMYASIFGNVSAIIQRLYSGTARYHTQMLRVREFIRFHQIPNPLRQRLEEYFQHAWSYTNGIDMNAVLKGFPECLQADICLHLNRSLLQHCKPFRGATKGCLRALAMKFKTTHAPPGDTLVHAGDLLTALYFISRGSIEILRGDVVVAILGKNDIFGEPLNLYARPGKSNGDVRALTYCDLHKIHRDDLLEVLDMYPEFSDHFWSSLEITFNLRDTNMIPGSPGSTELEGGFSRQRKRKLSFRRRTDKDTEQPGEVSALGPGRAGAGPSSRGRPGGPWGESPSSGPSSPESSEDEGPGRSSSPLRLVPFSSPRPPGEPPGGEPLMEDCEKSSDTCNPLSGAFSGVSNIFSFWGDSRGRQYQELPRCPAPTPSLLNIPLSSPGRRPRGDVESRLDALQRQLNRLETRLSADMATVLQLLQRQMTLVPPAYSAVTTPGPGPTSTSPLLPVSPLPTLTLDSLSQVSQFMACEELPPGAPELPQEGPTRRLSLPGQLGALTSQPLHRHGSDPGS

Structure (SMILES): NC/C=C(\F)CS(=O)(=O)c1ccccc1 [PXS-4787]
- inhibition at 10 µM (hERG potassium channel): 9%
- inhibition at 10 µM (Sigma σ1): -10%
- % Inh. (Imidazoline I2, Central): -10%
- Log2 fold change LOC101927136 (keratinocytes): 3.918
- Log2 fold change TMOD1 (keratinocytes): 4.799
- % Inh. [1]: 8%
- deposited fibrillar collagen I (primary scar fibroblasts; 10 µM vs control and 1 µM): significantly reduced
- collagen I coherency (primary scar fibroblasts; 1 and 10 µM vs control): significantly reduced coherency
- inhibition at 10 µM (Endothelin ETB): 3%
- collagen I production (soluble procollagen I) [2]: significant and sustained reduction

Structure (SMILES): NC/C=C(\F)C(F)(F)S(=O)(=O)c1ccccc1 [PXS-6302]
- inhibition at 30 µM [3]: 25%

Reference: paper PMC9500072, “Topical application of an irreversible small molecule inhibitor of lysyl oxidases ameliorates skin scarring and fibrosis” (Nature Communications, 2022)
